Source: article PMC5218480 (PLoS ONE, 2017)

Test system: MV-4-11 cells
Assay: Gene expression microarray analysis (Affymetrix PrimeView) and GSEA
Type: cell-based, human
Set-up: RFU PODN (11730768_x_at) / Fold change /veh PODN (11730768_x_at) / RFU LINC00158 (11744669_a_at) / Fold change /veh LINC00158 (11744669_a_at) / RFU DUSP10 (11751237_a_at) / Fold change /veh DUSP10 (11751237_a_at) / RFU ID3 (11757404_x_at) / Fold change /veh ID3 (11757404_x_at) / RFU PLEKHG5 (11737974_s_at) / Fold change /veh PLEKHG5 (11737974_s_at) / RFU LRRC4B (11730491_at) / Fold change /veh LRRC4B (11730491_at) / RFU GIMAP4 (11747438_a_at) / Fold change /veh GIMAP4 (11747438_a_at) / RFU KRT8 (11758183_x_at) / Fold change /veh KRT8 (11758183_x_at) / RFU CNN1 (11734310_a_at) / Fold change /veh CNN1 (11734310_a_at) / RFU VPS37D (11726825_at) / Fold change /veh VPS37D (11726825_at) / RFU C10orf10 (11716522_x_at) / Fold change /veh C10orf10 (11716522_x_at) / RFU KIR2DL2 /// KIR2DL4 /// KIR2DL5A /// KIR2DL5B /// KIR2DS1 /// KIR2DS2 /// KIR2DS3 /// KIR2DS4 /// KIR3DL3 /// KIR3DL3 /// KIR3DS1 (11738374_at) / Fold change /veh KIR2DL2 /// KIR2DL4 /// KIR2DL5A /// KIR2DL5B /// KIR2DS1 /// KIR2DS2 /// KIR2DS3 /// KIR2DS4 /// KIR3DL3 /// KIR3DL3 /// KIR3DS1 (11738374_at) / RFU C1QL1 (11718748_at) / Fold change /veh C1QL1 (11718748_at) / RFU TMPRSS4 (11747572_a_at) / Fold change /veh TMPRSS4 (11747572_a_at) / RFU HAMP (11756126_x_at) / Fold change /veh HAMP (11756126_x_at) / RFU RNFT2 (11725882_a_at) / Fold change /veh RNFT2 (11725882_a_at) / RFU NR4A2 (11747474_a_at) / Fold change /veh NR4A2 (11747474_a_at) / RFU ABCC12 (11746883_a_at) / Fold change /veh ABCC12 (11746883_a_at) / RFU TMEM136 (11760407_x_at) / Fold change /veh TMEM136 (11760407_x_at) / RFU CLDN22 /// WWC2 (11732394_at) / Fold change /veh CLDN22 /// WWC2 (11732394_at) / RFU HLA-DPB1 (11760878_x_at) / Fold change /veh HLA-DPB1 (11760878_x_at) / RFU SPINT1 (11716480_a_at) / Fold change /veh SPINT1 (11716480_a_at) / RFU GAP43 (11754022_s_at) / Fold change /veh GAP43 (11754022_s_at) / RFU A4GNT (11735810_at) / Fold change /veh A4GNT (11735810_at) / RFU PRB3 (11715151_x_at) / Fold change /veh PRB3 (11715151_x_at) / RFU TUBB4B (11761932_at) / Fold change /veh TUBB4B (11761932_at) / RFU CAPN14 (11732068_a_at) / Fold change /veh CAPN14 (11732068_a_at) / RFU TMCC2 (11721928_a_at) / Fold change /veh TMCC2 (11721928_a_at) / RFU IRGQ (11745062_a_at) / Fold change /veh IRGQ (11745062_a_at) / RFU FAM174B (11720279_a_at) / Fold change /veh FAM174B (11720279_a_at) / RFU TMPRSS4 (11748680_a_at) / Fold change /veh TMPRSS4 (11748680_a_at) / RFU FAM212B (11763350_a_at) / Fold change /veh FAM212B (11763350_a_at) / RFU PLEKHG5 (11743358_a_at) / Fold change /veh PLEKHG5 (11743358_a_at) / RFU ZSCAN30 (11745921_a_at) / Fold change /veh ZSCAN30 (11745921_a_at) / RFU CMKLR1 (11741424_a_at) / Fold change /veh CMKLR1 (11741424_a_at) / RFU LOC101060620 /// MAPK8IP1 (11723275_at) / Fold change /veh LOC101060620 /// MAPK8IP1 (11723275_at) / RFU SPTSSB (11747773_x_at) / Fold change /veh SPTSSB (11747773_x_at) / RFU PRSS12 (11739890_at) / Fold change /veh PRSS12 (11739890_at) / RFU BIN1 (11741810_x_at) / Fold change /veh BIN1 (11741810_x_at) / RFU WNT11 (11732464_a_at) / Fold change /veh WNT11 (11732464_a_at) / RFU C10orf10 (11716521_a_at) / Fold change /veh C10orf10 (11716521_a_at) / RFU C5orf56 (11738089_at) / Fold change /veh C5orf56 (11738089_at) / RFU CYB561 (11721691_x_at) / Fold change /veh CYB561 (11721691_x_at) / RFU ANKRD19P (11752326_a_at) / Fold change /veh ANKRD19P (11752326_a_at) / RFU OR2T12 /// OR2T33 /// OR2T8 (11738714_s_at) / Fold change /veh OR2T12 /// OR2T33 /// OR2T8 (11738714_s_at) / RFU VCAN (11748164_a_at) / Fold change /veh VCAN (11748164_a_at) / RFU JSRP1 (11732532_at) / Fold change /veh JSRP1 (11732532_at) / RFU KRTAP10-11 (11738290_x_at) / Fold change /veh KRTAP10-11 (11738290_x_at) / RFU MYO3A (11730013_a_at) / Fold change /veh MYO3A (11730013_a_at) / RFU EBF3 (11725865_a_at) / Fold change /veh EBF3 (11725865_a_at) / RFU CAMK2N1 (11719241_x_at) / Fold change /veh CAMK2N1 (11719241_x_at) / RFU C5orf56 (11738088_a_at) / Fold change /veh C5orf56 (11738088_a_at) / RFU OLFML3 (11715873_a_at) / Fold change /veh OLFML3 (11715873_a_at) / RFU LOC100653217 /// NTM (11731650_a_at) / Fold change /veh LOC100653217 /// NTM (11731650_a_at) / RFU MAPK11 (11762145_a_at) / Fold change /veh MAPK11 (11762145_a_at) / RFU FIZ1 (11724087_x_at) / Fold change /veh FIZ1 (11724087_x_at) / RFU OASL (11726364_x_at) / Fold change /veh OASL (11726364_x_at) / RFU SOX15 (11748057_x_at) / Fold change /veh SOX15 (11748057_x_at) / RFU CD79A (11719716_a_at) / Fold change /veh CD79A (11719716_a_at) / RFU HIST1H1D (11736915_at) / Fold change /veh HIST1H1D (11736915_at) / RFU CASKIN2 (11723855_a_at) / Fold change /veh CASKIN2 (11723855_a_at) / RFU LOC730098 (11760151_x_at) / Fold change /veh LOC730098 (11760151_x_at) / RFU OR4N2 (11742367_at) / Fold change /veh OR4N2 (11742367_at) / RFU PRRT2 (11749266_a_at) / Fold change /veh PRRT2 (11749266_a_at) / RFU SNX32 (11753110_a_at) / Fold change /veh SNX32 (11753110_a_at) / RFU CDHR5 (11726645_a_at) / Fold change /veh CDHR5 (11726645_a_at) / RFU RCAN1 (11760418_a_at) / Fold change /veh RCAN1 (11760418_a_at) / RFU FAM167A (11723789_a_at) / Fold change /veh FAM167A (11723789_a_at) / RFU FAM26E (11764081_at) / Fold change /veh FAM26E (11764081_at) / RFU ISYNA1 (11749810_s_at) / Fold change /veh ISYNA1 (11749810_s_at) / RFU ACY1 (11761880_at) / Fold change /veh ACY1 (11761880_at) / RFU 11764098_at / Fold change /veh 11764098_at / RFU SAMD14 (11745864_x_at) / Fold change /veh SAMD14 (11745864_x_at) / RFU NPB (11741838_a_at) / Fold change /veh NPB (11741838_a_at) / RFU TMPRSS6 (11731388_a_at) / Fold change /veh TMPRSS6 (11731388_a_at) / RFU KRTAP10-2 (11738614_at) / Fold change /veh KRTAP10-2 (11738614_at) / RFU ARHGAP8 /// PRR5-ARHGAP8 (11727945_x_at) / Fold change /veh ARHGAP8 /// PRR5-ARHGAP8 (11727945_x_at) / RFU KRTAP5-7 /// NADSYN1 (11734609_at) / Fold change /veh KRTAP5-7 /// NADSYN1 (11734609_at) / RFU RASL12 (11751679_a_at) / Fold change /veh RASL12 (11751679_a_at) / RFU CDKN2B (11736163_a_at) / Fold change /veh CDKN2B (11736163_a_at) / RFU PRF1 (11729649_at) / Fold change /veh PRF1 (11729649_at) / RFU, ZNF638 /// ZNF638-IT1 / Fold change vs veh, ZNF638 /// ZNF638-IT1 / RFU, PANK3 / Fold change vs veh, PANK3 / RFU, SH3YL1 / Fold change vs veh, SH3YL1 / RFU, ZEB2 / Fold change vs veh, ZEB2 / RFU, NRIP1 / Fold change vs veh, NRIP1 / RFU, PTTG1IP / Fold change vs veh, PTTG1IP / RFU, CAPN2 / Fold change vs veh, CAPN2 / RFU, MED14 / Fold change vs veh, MED14 / RFU, SNORA58 / Fold change vs veh, SNORA58 / RFU, C1orf63 / Fold change vs veh, C1orf63 / RFU, LRRFIP1 / Fold change vs veh, LRRFIP1 / RFU, NDUFAF7 / Fold change vs veh, NDUFAF7 / RFU, SLC12A2 / Fold change vs veh, SLC12A2 / RFU, IBTK / Fold change vs veh, IBTK / RFU, ESF1 / Fold change vs veh, ESF1 / Fold change vs veh, TMEM50B / RFU, TAOK1 / Fold change vs veh, TAOK1 / RFU, ACBD3 / Fold change vs veh, ACBD3 / RFU, TMA16 / Fold change vs veh, TMA16 / RFU, RWDD3 / Fold change vs veh, RWDD3 / RFU, BCAT1 / Fold change vs veh, BCAT1 / RFU, EDEM3 / Fold change vs veh, EDEM3 / RFU, TMEM33 / Fold change vs veh, TMEM33 / RFU, WDR75 / Fold change vs veh, WDR75 / RFU, AHCTF1 / Fold change vs veh, AHCTF1 / RFU, TFRC / Fold change vs veh, TFRC / RFU, ZDHHC17 / Fold change vs veh, ZDHHC17 / RFU, NOM1 / Fold change vs veh, NOM1 / RFU, ARL8B / Fold change vs veh, ARL8B / RFU, ZBTB11 / Fold change vs veh, ZBTB11 / RFU, TAMM41 / Fold change vs veh, TAMM41 / RFU, KIAA1704 /// LOC100996395 / Fold change vs veh, KIAA1704 /// LOC100996395 / RFU, ING1 / Fold change vs veh, ING1 / RFU, TRMT61B / Fold change vs veh, TRMT61B / RFU, FUBP3 / Fold change vs veh, FUBP3 / RFU, TP53 / Fold change vs veh, TP53 / RFU, TNKS2 / Fold change vs veh, TNKS2 / RFU, ZFP14 / Fold change vs veh, ZFP14 / RFU, ACTR2 / Fold change vs veh, ACTR2 / RFU, PPP3R1 / Fold change vs veh, PPP3R1 / RFU, PIK3R1 / Fold change vs veh, PIK3R1 / RFU, HNRNPA1 / Fold change vs veh, HNRNPA1 / RFU, RNF170 / Fold change vs veh, RNF170 / RFU, ZNF28 / Fold change vs veh, ZNF28 / RFU, RNGTT / Fold change vs veh, RNGTT / RFU, OGT / Fold change vs veh, OGT / RFU, BRD1 / Fold change vs veh, BRD1 / RFU, MARS / Fold change vs veh, MARS / RFU, ZNF655 / Fold change vs veh, ZNF655 / RFU, FAHD1 / Fold change vs veh, FAHD1 / RFU, BDP1 / Fold change vs veh, BDP1 / RFU, LRRCC1 / Fold change vs veh, LRRCC1 / RFU, ARID1A / Fold change vs veh, ARID1A / RFU, ZNF146 / Fold change vs veh, ZNF146 / RFU, ZNF330 / Fold change vs veh, ZNF330 / RFU, GPN3 / Fold change vs veh, GPN3 / RFU, C9orf123 / Fold change vs veh, C9orf123 / RFU, N4BP2L2 / Fold change vs veh, N4BP2L2 / RFU, ARFIP1 / Fold change vs veh, ARFIP1 / RFU, FAM179B / Fold change vs veh, FAM179B / RFU, BCL10 / Fold change vs veh, BCL10 / RFU, UHRF1BP1L / Fold change vs veh, UHRF1BP1L / RFU, BET1 / Fold change vs veh, BET1 / RFU, CNOT2 / Fold change vs veh, CNOT2 / RFU, ZNF268 / Fold change vs veh, ZNF268 / Fold change vs veh, ZNF507 / RFU, DGCR2 / Fold change vs veh, DGCR2 / RFU, WDSUB1 / Fold change vs veh, WDSUB1 / Fold change vs veh, HSP90B1 /// MIR3652 / RFU, ADSS / Fold change vs veh, ADSS / RFU, GK / Fold change vs veh, GK / RFU, ZNF148 / Fold change vs veh, ZNF148 / RFU, TAF9 / Fold change vs veh, TAF9 / RFU, SLC1A5 / Fold change vs veh, SLC1A5 / RFU, SLMO2 / Fold change vs veh, SLMO2 / RFU, ABCC4 / Fold change vs veh, ABCC4 / RFU, LOC101060439 /// RAP1B / Fold change vs veh, LOC101060439 /// RAP1B / RFU, RFX7 / Fold change vs veh, RFX7 / RFU, GTPBP10 / Fold change vs veh, GTPBP10 / RFU, CNEP1R1 / Fold change vs veh, CNEP1R1 / RFU, BIVM-ERCC5 /// ERCC5 / Fold change vs veh, BIVM-ERCC5 /// ERCC5 / RFU, ILF3 / Fold change vs veh, ILF3 / RFU 11762660_at / Fold change /veh 11762660_at / RFU VCAN (11757783_s_at) / Fold change /veh VCAN (11757783_s_at) / RFU DDX43 (11728927_at) / Fold change /veh DDX43 (11728927_at) / RFU KRT8 (11758188_x_at) / Fold change /veh KRT8 (11758188_x_at) / RFU NKD1 (11759106_at) / Fold change /veh NKD1 (11759106_at) / RFU SRD5A1 (11742802_a_at) / Fold change /veh SRD5A1 (11742802_a_at) / RFU TPSAB1 /// TPSB2 (11721975_s_at) / Fold change /veh TPSAB1 /// TPSB2 (11721975_s_at) / RFU GSTM3 (11746129_a_at) / Fold change /veh GSTM3 (11746129_a_at) / RFU IL23R (11737362_x_at) / Fold change /veh IL23R (11737362_x_at) / RFU TMEM51 (11727254_a_at) / Fold change /veh TMEM51 (11727254_a_at) / RFU PIWIL2 (11732686_x_at) / Fold change /veh PIWIL2 (11732686_x_at) / RFU ORM1 (11744905_x_at) / Fold change /veh ORM1 (11744905_x_at) / RFU CCDC152 (11743942_at) / Fold change /veh CCDC152 (11743942_at) / RFU ECM1 (11717891_a_at) / Fold change /veh ECM1 (11717891_a_at) / RFU IL23R (11748794_a_at) / Fold change /veh IL23R (11748794_a_at) / RFU TNFAIP8L3 (11732012_x_at) / Fold change /veh TNFAIP8L3 (11732012_x_at) / RFU MBOAT4 (11741988_at) / Fold change /veh MBOAT4 (11741988_at) / RFU 11764193_at / Fold change /veh 11764193_at / RFU TMEM53 (11763286_at) / Fold change /veh TMEM53 (11763286_at) / RFU MAGEB2 (11727129_at) / Fold change /veh MAGEB2 (11727129_at) / RFU TMEM200A (11744735_a_at) / Fold change /veh TMEM200A (11744735_a_at) / RFU CCDC152 (11751479_a_at) / Fold change /veh CCDC152 (11751479_a_at) / RFU FAM211A (11726209_a_at) / Fold change /veh FAM211A (11726209_a_at) / RFU RGS16 (11746705_a_at) / Fold change /veh RGS16 (11746705_a_at) / RFU VCAN (11755009_s_at) / Fold change /veh VCAN (11755009_s_at) / RFU RHOB (11743442_s_at) / Fold change /veh RHOB (11743442_s_at) / RFU RGS16 (11720943_a_at) / Fold change /veh RGS16 (11720943_a_at) / RFU RGS16 (11720944_at) / Fold change /veh RGS16 (11720944_at) / RFU, VPS4B / Fold change vs veh, VPS4B / RFU, CREB1 / Fold change vs veh, CREB1 / RFU, DNAJC13 / Fold change vs veh, DNAJC13 / RFU, GNAQ / Fold change vs veh, GNAQ / RFU, CDK5R1 / Fold change vs veh, CDK5R1 / RFU, ZRANB3 / Fold change vs veh, ZRANB3 / RFU, CUL4A / Fold change vs veh, CUL4A / RFU, CCNY / Fold change vs veh, CCNY / RFU, UFL1 / Fold change vs veh, UFL1 / RFU, COG3 / Fold change vs veh, COG3 / RFU, DIAPH2 / Fold change vs veh, DIAPH2 / RFU, SKA2 / Fold change vs veh, SKA2 / RFU, AFF3 / Fold change vs veh, AFF3 / RFU, LMF1 / Fold change vs veh, LMF1 / RFU, IPO11 / Fold change vs veh, IPO11 / RFU, DFFB / Fold change vs veh, DFFB / RFU, FOXP1 / Fold change vs veh, FOXP1 / RFU, CARD8 / Fold change vs veh, CARD8 / RFU, STRN3 / Fold change vs veh, STRN3 / RFU, ADK / Fold change vs veh, ADK / RFU, RASSF2 / Fold change vs veh, RASSF2 / RFU, WIPF1 / Fold change vs veh, WIPF1 / RFU, LARP1B / Fold change vs veh, LARP1B / RFU, RASA1 / Fold change vs veh, RASA1 / RFU, RB1 / Fold change vs veh, RB1 / RFU, PPFIA1 / Fold change vs veh, PPFIA1 / RFU, MAT2A / Fold change vs veh, MAT2A / RFU, CCT5 / Fold change vs veh, CCT5 / RFU, WDR92 / Fold change vs veh, WDR92 / RFU, CUX1 / Fold change vs veh, CUX1 / RFU, TTC7A / Fold change vs veh, TTC7A / RFU, TMEM135 / Fold change vs veh, TMEM135 / RFU, DEPTOR / Fold change vs veh, DEPTOR / RFU, CPM / Fold change vs veh, CPM / RFU, DNAJB6 / Fold change vs veh, DNAJB6 / RFU, CACNA2D3 / Fold change vs veh, CACNA2D3 / RFU, DTX4 / Fold change vs veh, DTX4 / RFU, TFCP2 / Fold change vs veh, TFCP2 / RFU, GMCL1 /// GMCL1P1 / Fold change vs veh, GMCL1 /// GMCL1P1 / RFU, AEBP2 / Fold change vs veh, AEBP2 / RFU, SNHG1 /// SNORD22 /// SNORD25 /// SNORD26 /// SNORD27 /// SNORD28 /// SNORD29 /// SNORD31 / Fold change vs veh, SNHG1 /// SNORD22 /// SNORD25 /// SNORD26 /// SNORD27 /// SNORD28 /// SNORD29 /// SNORD31 / Fold change (Aza/veh), C12orf56 (ProbeSet 11735607_a_at) / Fold change (ACY-1035/veh), C12orf56 (ProbeSet 11735607_a_at) / Fold change (Aza/veh), FGFR1OP (ProbeSet 11751329_s_at) / Fold change (ACY-1035/veh), FGFR1OP (ProbeSet 11751329_s_at) / Fold change (Aza/veh), VPS36 (ProbeSet 11739960_a_at) / Fold change (ACY-1035/veh), VPS36 (ProbeSet 11739960_a_at) / RFU SYPL1 (11715823_x_at) / Fold change /veh SYPL1 (11715823_x_at) / RFU IGFBP7 (11715501_s_at) / Fold change /veh IGFBP7 (11715501_s_at) / RFU REEP3 (11722064_at) / Fold change /veh REEP3 (11722064_at) / RFU IGLL1 (11728026_x_at) / Fold change /veh IGLL1 (11728026_x_at): dose or concentration left out as unconfirmed
Settings: ProbeSet 11753616_s_at; LIST B

Q: `Nc1ncn([C@@H]2O[C@H](CO)[C@@H](O)[C@H]2O)c(=O)n1` [azacitidine] was tested. Which “RFU, ARL8B” value did it give?
A: 221.87 RFU
